In brackets after ≈: the same amount, converted by molar mass.
Columns and labels:
MTT cytotoxicity assay = type: cell-based, mouse; conditions: mouse, L929 fibroblast cells; L929, 48 h culture, dose of 25 μM; read-out: increased viability
Procedure, shortened: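 Exponentially growing cells, cultured 24 h, then exposed to 10–100 μM compound for 24 and 48 h. MTT added for 4 h at 37 °C, formazan dissolved in DMSO, absorbance read at 570 nm; triplicate experiments.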

Gram-negative bacteria = assay: Broth microdilution, summary over reference Gram-negative bacteria; type: cell-based; conditions: for MIC: range over the reference Gram-negative bacteria; for antibacterial activity in words: reference Gram-negative bacteria
Excerpt: Procedures of in vitro antimicrobial assays are described in Supplementary Materials.
2. Microbiology – in vitro antimicrobial activity assays […]
using the broth microdilution method according to the European Committee on Antimicrobial Susceptibility Testing (EUCAST) and Clinical and Laboratory Standards Institute guidelines against a panel of reference and clinical or saprophytic strains of mi croorganisms, including the Gram-positive bacteria: Staphylococcus aureus ATCC 43300 (Methi-cillin Resistant S. aureus – MRSA), Staphylococcus aureus ATCC 29213 (Methicillin Susceptible S. aureus – MSSA), Staph-ylococcus epidermidis ATCC 12228, Micrococcus luteus ATCC 10240, Bacillus subtilis ATCC 6633 and Bacillus cereus ATCC 10876), Gram-negative bacteria: Bordetella bronchiseptica ATCC 4617, Escherichia coli ATCC 25922, Klebsiella pneumoniae ATCC 13883, Proteus mirabilis ATCC 12453, Salmonella typhimurium ATCC 14028 and Pseudomonas aeruginosa ATCC 9027, and fungi belonging to yeasts: Candida albicans ATCC 10231, Candida albicans ATCC 2091, Candida parapsilosis ATCC 22019, Candida glabrata ATCC 90030 and Candida krusei ATCC 14243. The microorganisms belonging to ATCC originated from American Type Culture Collection, routinely used for the evaluation of antimicrobials. All the used microbial cultures were first subcultured on nutrient agar or Sabouraud agar at 35°C for 18-24 h or 30°C for 24-48 h for bacteria […]
The surface of Mueller-Hinton agar (for bacteria) and RPMI 1640 with MOPS (for fungi) were inoculated with the suspensions of bacterial or fungal species. Microbial suspensions were prepared in sterile saline with an optical density of McFarland standard scale 0.5. The samples containing the compounds were dissolved in dimethyl sulfoxide (DMSO).
Furthermore, the bacterial and fungal suspensions put onto the Petri dishes with solid media containing 2 mg/mL of the tested compounds followed were incubated at 37°C for 24h and 30°C for 48h for bacteria and fungi, respectively. […]
Subsequently, MIC (Minimal Inhibitory Concentration) of the compounds was examined by the microdilution broth method, using their two-fold dilutions in Mueller-Hinton broth (for bacteria) and RPMI 1640 broth with MOPS (for fungi) prepared in the 96-well polystyrene plates. […] After incubation, the MIC was assessed spectrophotometrically as the lowest concentration of the […]
Appropriate DMSO, growth and sterile controls were carried out. […] The MBC/MFC was determined by removing the culture used for the MIC determination from each well and spotted onto the appro-priate agar medium. […] The lowest com-pounds concentration with no visible growth observed was assessed as a bactericidal/fungicidal concentration. […]

SMILES	viability at 48 h, 25 µM (MTT cytotoxicity assay) [%]	MIC (Gram-negative bacteria) [µg/mL]	antibacterial activity in words (Gram-negative bacteria)
O=C(N/N=C/c1cc(I)cc(I)c1O)c1ccccc1I [Compound 14, N-[(3,5-diiodo-2-hydroxyphenyl)methylidene]-2-iodobenzohydrazide]	> 100		
O=C(N/N=C/c1cc(Cl)cc(I)c1O)c1cccc(I)c1 [Compound 20, N-[(5-chloro-2-hydroxy-3-iodophenyl)methylidene]-3-iodobenzohydrazide]		500 to 1000 (≈ 950 to 1900 µM)	mild or moderate
O=C(N/N=C/c1cc(Cl)cc(I)c1O)c1ccc(I)cc1 [Compound 27, N-[(5-chloro-2-hydroxy-3-iodophenyl)methylidene]-4-iodobenzohydrazide]		500 (≈ 950 µM)	moderate (moderate bioactivity with MIC from 126 to 500 µg/mL)
